test system: oval-leafed pondweed; test: Test Example 1: herbicidal activity, application before weed generation under submerged conditions (Table 16, symbol C); format: in vivo, oval-leafed pondweed (Monochoria vaginalis); settings: 320 g/ha applied herbicide
How it was run: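 Submerged Wagner pots (alluvial soil, 4 cm water) sown with weed seeds and planted with 2.5-leaf rice seedlings; emulsifiable concentrate diluted in water applied to water surface on sowing day. Held in greenhouse at 25-30 °C; injury scored 0-5 by herbicidal rate after three weeks.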

Compound	Herbicidal effect on C: oval-leafed pondweed (grade 0-5)
CCCC(=O)Oc1c(C)nn(C)c(=O)c1-c1c(-c2ccc(Cl)cc2)sc2ccc(F)cc12 [2-011]	3 (Herbicidal rate of 40% or more and less than 70%)
CCCC(=O)Oc1c(C)nn(C)c(=O)c1-c1c(-c2ccc(CC)cc2)sc2ccc(F)cc12 [2-016]	5 (Herbicidal rate of 90% or more (almost completely withered))

test system: Japanese bulrush; test: Test Example 2: herbicidal activity, application during weed generation under submerged conditions (Table 17, symbol B); format: in vivo, Japanese bulrush (Schoenoplectus juncoides); settings: AAH 320 g/ha; application during weed generation, submerged conditions
How it was run: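 Steps: fill Wagner pots with alluvial soil; add water to give 4 cm depth; sow the species mixed; grow under glass at 25–30° C.; at 1–2 leaves apply water-diluted emulsion formulation to the water surface at a fixed herbicide amount; score after 3 weeks.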

Compound	herbicidal effect rating, B: Japanese bulrush
CCCC(=O)Oc1c(C)nn(C)c(=O)c1-c1c(-c2ccc(Cl)cc2)sc2ccc(F)cc12 [2-011]	3 (Herbicidal rate of 40% or more and less than 70%)
CCCC(=O)Oc1c(C)nn(C)c(=O)c1-c1c(-c2ccc(CC)cc2)sc2ccc(F)cc12 [2-016]	4 (Herbicidal rate of 70% or more and less than 90%)

test system: southern crabgrass; test: Test Example 4: herbicidal effect by soil treatment (Table 19, symbol F); format: in vivo, southern crabgrass (Digitaria ciliaris); settings: 320 g/ha
How it was run: (§1)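 Applied as a water-diluted emulsion, the compound was sprayed onto soil covering newly sown seeds. Evaluation came three weeks after application, in a greenhouse held at 25° C. to 30° C.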

Compound	herbicidal effect rating, F: southern crabgrass
CCCC(=O)Oc1c(C)nn(C)c(=O)c1-c1c(-c2ccc(Cl)cc2)sc2ccc(F)cc12 [2-011]	3 (Herbicidal rate of 40% or more and less than 70%)
CCCC(=O)Oc1c(C)nn(C)c(=O)c1-c1c(-c2ccc(CC)cc2)sc2ccc(F)cc12 [2-016]	0 (Herbicidal rate of 5% or less (almost no effect))

test system: green foxtail; test: Test Example 4: herbicidal effect by soil treatment (Table 19, symbol G); format: in vivo, green foxtail (Setaria viridis); settings: 320 g/ha
How it was run: as §1

Compound	herbicidal effect rating, G: green foxtail
CCCC(=O)Oc1c(C)nn(C)c(=O)c1-c1c(-c2ccc(Cl)cc2)sc2ccc(F)cc12 [2-011]	2 (Herbicidal rate of 20% or more and less than 40%)
CCCC(=O)Oc1c(C)nn(C)c(=O)c1-c1c(-c2ccc(CC)cc2)sc2ccc(F)cc12 [2-016]	0 (Herbicidal rate of 5% or less (almost no effect))

test system: barnyard grass; test: Test Example 4: herbicidal effect by soil treatment (Table 19, symbol H); format: in vivo, barnyard grass (Echinochloa crus-galli); settings: 320 g/ha
How it was run: as §1

Compound	herbicidal effect rating, H: barnyard grass
CCCC(=O)Oc1c(C)nn(C)c(=O)c1-c1c(-c2ccc(Cl)cc2)sc2ccc(F)cc12 [2-011]	3 (Herbicidal rate of 40% or more and less than 70%)
CCCC(=O)Oc1c(C)nn(C)c(=O)c1-c1c(-c2ccc(CC)cc2)sc2ccc(F)cc12 [2-016]	1 (Herbicidal rate of 5% or more and less than 20%)

test system: wild oat; test: Test Example 4: herbicidal effect by soil treatment (Table 19, symbol I); format: in vivo, wild oat (Avena fatua); settings: 320 g/ha
How it was run: as §1

Compound	herbicidal effect rating, I: wild oat
CCCC(=O)Oc1c(C)nn(C)c(=O)c1-c1c(-c2ccc(Cl)cc2)sc2ccc(F)cc12 [2-011]	0 (Herbicidal rate of 5% or less (almost no effect))
CCCC(=O)Oc1c(C)nn(C)c(=O)c1-c1c(-c2ccc(CC)cc2)sc2ccc(F)cc12 [2-016]	0 (Herbicidal rate of 5% or less (almost no effect))

test system: blackgrass; test: Test Example 4: herbicidal effect by soil treatment (Table 19, symbol J); format: in vivo, blackgrass (Alopecurus myosuroides); settings: 320 g/ha
How it was run: as §1

Compound	herbicidal effect rating, J: blackgrass
CCCC(=O)Oc1c(C)nn(C)c(=O)c1-c1c(-c2ccc(Cl)cc2)sc2ccc(F)cc12 [2-011]	0 (Herbicidal rate of 5% or less (almost no effect))
CCCC(=O)Oc1c(C)nn(C)c(=O)c1-c1c(-c2ccc(CC)cc2)sc2ccc(F)cc12 [2-016]	2 (Herbicidal rate of 20% or more and less than 40%)

test system: velvetleaf; test: Test Example 4: herbicidal effect by soil treatment (Table 19, symbol M); format: in vivo, velvetleaf (Abutilon theophrasti); settings: 320 g/ha
How it was run: as §1

Compound	herbicidal effect rating, M: velvetleaf
CCCC(=O)Oc1c(C)nn(C)c(=O)c1-c1c(-c2ccc(Cl)cc2)sc2ccc(F)cc12 [2-011]	3 (Herbicidal rate of 40% or more and less than 70%)
CCCC(=O)Oc1c(C)nn(C)c(=O)c1-c1c(-c2ccc(CC)cc2)sc2ccc(F)cc12 [2-016]	3 (Herbicidal rate of 40% or more and less than 70%)

test system: lambsquarters; test: Test Example 4: herbicidal effect by soil treatment (Table 19, symbol O); format: in vivo, lambsquarters (Chenopodium album); settings: 320 g/ha
How it was run: as §1

Compound	herbicidal effect rating, O: lambsquarters
CCCC(=O)Oc1c(C)nn(C)c(=O)c1-c1c(-c2ccc(Cl)cc2)sc2ccc(F)cc12 [2-011]	5 (Herbicidal rate of 90% or more (almost completely withered))
CCCC(=O)Oc1c(C)nn(C)c(=O)c1-c1c(-c2ccc(CC)cc2)sc2ccc(F)cc12 [2-016]	5 (Herbicidal rate of 90% or more (almost completely withered))

test system: chickweed; test: Test Example 4: herbicidal effect by soil treatment (Table 19, symbol P); format: in vivo, common chickweed (Stellaria media); settings: 320 g/ha
How it was run: as §1

Compound	herbicidal effect rating, P: chickweed
CCCC(=O)Oc1c(C)nn(C)c(=O)c1-c1c(-c2ccc(Cl)cc2)sc2ccc(F)cc12 [2-011]	2 (Herbicidal rate of 20% or more and less than 40%)
CCCC(=O)Oc1c(C)nn(C)c(=O)c1-c1c(-c2ccc(CC)cc2)sc2ccc(F)cc12 [2-016]	1 (Herbicidal rate of 5% or more and less than 20%)

test system: persian speedwell; test: Test Example 4: herbicidal effect by soil treatment (Table 19, symbol R); format: in vivo, Persian speedwell (Veronica persica); settings: 320 g/ha
How it was run: as §1

Compound	herbicidal effect rating, R: persian speedwell
CCCC(=O)Oc1c(C)nn(C)c(=O)c1-c1c(-c2ccc(Cl)cc2)sc2ccc(F)cc12 [2-011]	4 (Herbicidal rate of 70% or more and less than 90%)
CCCC(=O)Oc1c(C)nn(C)c(=O)c1-c1c(-c2ccc(CC)cc2)sc2ccc(F)cc12 [2-016]	4 (Herbicidal rate of 70% or more and less than 90%)

test system: southern crabgrass; test: Test Example 5: herbicidal effect by foliage application, plastic box (Table 20, symbol F); format: in vivo, southern crabgrass (Digitaria ciliaris); settings: foliage application, 320 g/ha, 3 weeks after application
How it was run: (§2)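 Sow seeds spot-wise in sterilized diluvial soil; cover with ~1.5 cm soil. Grow 14 days in greenhouse, 25° C. to 30° C. Spray foliage with emulsion diluted to predetermined amount. Rate effect after 3 weeks.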

Compound	effect on southern crabgrass (F)
CCCC(=O)Oc1c(C)nn(C)c(=O)c1-c1c(-c2ccc(Cl)cc2)sc2ccc(F)cc12 [2-011]	4 (Herbicidal rate of 70% or more and less than 90%)
CCCC(=O)Oc1c(C)nn(C)c(=O)c1-c1c(-c2ccc(CC)cc2)sc2ccc(F)cc12 [2-016]	0 (Herbicidal rate of 5% or less (almost no effect))

test system: windgrass; test: Test Example 5: herbicidal effect by foliage application, plastic box (Table 20, symbol L); format: in vivo, windgrass (Apera spica-venti); settings: foliage application, 320 g/ha, 3 weeks after application
How it was run: as §2

Compound	effect on windgrass (L)
CCCC(=O)Oc1c(C)nn(C)c(=O)c1-c1c(-c2ccc(Cl)cc2)sc2ccc(F)cc12 [2-011]	3 (Herbicidal rate of 40% or more and less than 70%)
CCCC(=O)Oc1c(C)nn(C)c(=O)c1-c1c(-c2ccc(CC)cc2)sc2ccc(F)cc12 [2-016]	5 (Herbicidal rate of 90% or more (almost completely withered))

test system: velvetleaf; test: Test Example 5: herbicidal effect by foliage application, plastic box (Table 20, symbol M); format: in vivo, velvetleaf (Abutilon theophrasti); settings: foliage application, 320 g/ha, 3 weeks after application
How it was run: as §2

Compound	effect on velvetleaf (M)
CCCC(=O)Oc1c(C)nn(C)c(=O)c1-c1c(-c2ccc(Cl)cc2)sc2ccc(F)cc12 [2-011]	5 (Herbicidal rate of 90% or more (almost completely withered))
CCCC(=O)Oc1c(C)nn(C)c(=O)c1-c1c(-c2ccc(CC)cc2)sc2ccc(F)cc12 [2-016]	5 (Herbicidal rate of 90% or more (almost completely withered))

test system: lambsquarters; test: Test Example 5: herbicidal effect by foliage application, plastic box (Table 20, symbol O); format: in vivo, lambsquarters (Chenopodium album); settings: foliage application, 320 g/ha, 3 weeks after application
How it was run: as §2

Compound	effect on lambsquarters (O)
CCCC(=O)Oc1c(C)nn(C)c(=O)c1-c1c(-c2ccc(Cl)cc2)sc2ccc(F)cc12 [2-011]	5 (Herbicidal rate of 90% or more (almost completely withered))
CCCC(=O)Oc1c(C)nn(C)c(=O)c1-c1c(-c2ccc(CC)cc2)sc2ccc(F)cc12 [2-016]	5 (Herbicidal rate of 90% or more (almost completely withered))

test system: persian speedwell; test: Test Example 5: herbicidal effect by foliage application, plastic box (Table 20, symbol R); format: in vivo, Persian speedwell (Veronica persica); settings: foliage application, 320 g/ha, 3 weeks after application
How it was run: as §2

Compound	effect on persian speedwell (R)
CCCC(=O)Oc1c(C)nn(C)c(=O)c1-c1c(-c2ccc(Cl)cc2)sc2ccc(F)cc12 [2-011]	5 (Herbicidal rate of 90% or more (almost completely withered))
CCCC(=O)Oc1c(C)nn(C)c(=O)c1-c1c(-c2ccc(CC)cc2)sc2ccc(F)cc12 [2-016]	5 (Herbicidal rate of 90% or more (almost completely withered))

Reference: patent publication US20230085307A1, “PYRIDAZINONE COMPOUND AND HERBICIDE” (NISSAN CHEMICAL CORPORATION, priority 2019, published 2023)
